Square brackets hold non-standard residues; d marks the D form. Peptide text beside a SMILES is read from it. NMeF = CN[C@@H](Cc1ccccc1)C(=O)O

In data set [1] the test system is male mice of Kunming strain. In words: Analgesic tolerance test (photothermal tail flick). Format: in vivo, mouse. The protocol: The mice were injected with the drug in the lateral ventricle of the mice for six consecutive days or in the subcutaneous of the mice for eight consecutive days, and their analgesic tolerance were detected by photothermal tail flick method, and the pharmacological activity of the compounds of the present invention in analgesic tolerance was further explored.
In male mice of Kunming strain, the drug was injected continuously in the lateral ventricle for six days, once a day, and the effect of continuous injection of drugs on the pain sensation was detected by a photothermal tail flick instrument. The ambient temperature is controlled at 22±1° C., and the experimental animals are free to eat and drink. The test drug was injected into the lateral ventricle of the mouse for 6 consecutive days, 4 μl per injection. The basic tail flick incubation period (3-5 seconds) was measured before the first day of drug injection, and those mice that were too sensitive or dull were discarded. The tail flick incubation period of 5, 10, 15, 20, 30 min after administration on the first and sixth days was recorded in the experiment. To prevent scald on the tail of the mouse, the maximum tail flick incubation period was set as 10 seconds,
In addition, we further studied the tolerance of subcutaneous administration of compound 9 and morphine in the photothermal tail flick test. The ambient temperature is controlled at 22±1° C., and the experimental animals are free to eat and drink. First, the basic tail flick incubation period (3-5 seconds) of the mice was measured before administration, and then compound 9 or morphine was administered subcutaneously for eight consecutive days. The tail flick incubation period of 10, 15 and 20 minutes after daily administration were recorded. To prevent scald on the tail of the mouse, the maximum tail flick incubation period was set as 10 seconds.
The experimental data is expressed by MPE (maximum possible effect), MPE (%)=100×[(pain threshold after administration−basal pain threshold)/(10 seconds−basal pain threshold)]. The analgesic tolerance of the drug was compared using the MPE value at the time of maximum analgesic effect of the drug. MPE data was expressed as mean±standard error (Means±S.E.M.). The difference in the analgesic effect of continuous administration in the lateral ventricle of the mice for six days was statistically analyzed by the paired T test, and the difference in the analgesic effect of subcutaneous continuous administration for eight days was analyzed by One-way analysis of variance (one-way ANOVA's Tukey HSD test) for statistics, and ***P<0.001 indicates a significant difference from the analgesic effect of the drug injected on the first day.

The subject of data set [2] is formalin-induced pain mice. The experiment in a line: Formalin pain test. Format: in vivo, mouse. The protocol:
The mice were placed in a transparent organic glass box (20×20×30 cm) to accommodate the environment for 10-15 min; a mirror tilted at 30 degrees was placed underneath to facilitate observation of the mouse's foot reaction. After adaptation, the mice were administered in lateral ventricle, intrathecally or intraperitoneally. 5 minutes after administration, 20 μL of a 5% formalin solution was subcutaneously injected into the toes of the right hind paw of the mice, and quickly placed back in the observation box. Timing was started, and the time when the mouse was licking, biting and shaking the injected paw during 0-5 minutes and 15-30 minutes after the injection of the formalin solution were recorded respectively.
The experimental data was expressed by MPE (maximum possible effect), MPE (%)=100×[(licking paw time in saline group−licking paw time in drug group)/licking paw time in saline group]. The relevant MPE data were expressed as mean±standard error Means±S.E.M.), the data for differences between groups treated with different drug concentrations were analyzed by one-way ANOVA (Bonferroni test in one-way ANOVA) for statistics and analysis, ***P<0.001 represents that there was a significant difference between the MPE value of the drug-treated group and that of the saline group.

Data set [3] has as its system body temperature of mice. The experiment in a line: Body temperature of mice (rectal temperature). It counts as in vivo. As to conditions: mouse, intrathecal; doses 100, 300, 500 pmol. The protocol:
Mice were fixed in the manner described in Rosow et al. (1980). The ambient temperature was controlled at 21±0.5° C. and the experiment was carried out between 10 am and 2 pm. A temperature sensor attached to the biofunctional test BL-420F system was inserted into the rectum of the mouse in a depth of 2.5 cm to record the rectal temperature. The body temperatures before the intrathecal administration and at 10, 20, 30, 40, 50 and 60 minutes after administration were recorded.
The experiment results of regulation on the mouse body temperature were expressed as the difference between the basal body temperature and the body temperature after administration. The relevant data were expressed as mean+standard error (Means±S.E.M.). Differences between groups treated with different drug concentrations were analyzed by one-way ANOVA (Bonfenoni test in one-way ANOVA) for data statistics and analysis.

Data set [4] deals with CFA-induced inflammatory pain in mouse. The experiment in a line: Analgesic tolerance and cross-tolerance in CFA-induced inflammatory pain. Format: in vivo. The protocol:
CFA-induced inflammatory pain in mouse was detected by an electronic Von Frey tenderness instrument, and the basal pain threshold of normal mice was Firstly determined. Then […] of CFA solution was injected subcutaneously into the mouse paw. After 4 days, the mechanical pain sensitivity value of the injected paw of the mouse was measured. And then compound 9 or morphine was injected for 6 consecutive days (lateral ventricle) or 7 consecutive days (subcutaneously), and the mice in morphine group were given compound 9 on day 7 (lateral ventricle) or day 8 (subcutaneous). The mechanical pain thresholds at different time points after administration were recorded.
The experimental data were expressed as mean± standard error (Means±S.E.M.). Data for differences between groups treated with the same drug were analyzed by one-way ANOVA (Tukey HSD test of one-way ANOVA) for statistics and analysis, *P<0.05. **P<0.005, ***P<0.001 indicates a significant difference between the mechanical pain threshold of the drug-treated group and the pain threshold after the first day of administration.

Where [5] appears, read: lateral ventricle (i.c.v.), listed as compound 9.
Setting [6] is: lateral ventricle, from ED50 values.

For the compound `C[C@@H](NC(=O)[C@@H](N)Cc1ccc(O)cc1)C(=O)NCC(=O)N(C)[C@@H](Cc1ccccc1)C(=O)NCC(=O)N1CCC[C@H]1C(=O)N[C@@H](CCC(N)=O)C(=O)N[C@@H](CCCNC(=N)N)C(=O)N[C@@H](Cc1ccccc1)C(N)=O` [Compound 9, Tyr-D-Ala-Gly-NMe-Phe-Gly-Pro-Gln-Arg-Phe-NH2] (H-Y[dA]G[NMeF]GPQRF-NH2), the “analgesic tolerance” value in data set [1] (eight consecutive days subcutaneous, 10 mg/kg) is “not significantly different from that of the first day”. In addition, in data set [1] (tail flick, subcutaneous 10 mg/kg), the “analgesia effect compared with morphine” value is reported as “equivalent to that of an equal dose of morphine”. Also, the “ED50 value (95% confidence interval) first phase pain” value was 8.855 (7.573 to 10.35) mg/kg in data set [2] (intraperitoneal (i.p.)), 37.69 (35.53 to 39.99) pmol in data set [2] (intrathecal (i.t.)), 18.8 pmol in data set [2] (lateral ventricle (i.c.v.)) and 18.80 (15.97 to 22.12) pmol in data set [2] (setting [5]). Moreover, the “ED50 value (95% confidence interval) second phase pain” value is recorded as 10.92 (9.632 to 12.39) mg/kg in data set [2] (intraperitoneal (i.p.)), 55.04 (51.26 to 59.10) pmol in data set [2] (intrathecal (i.t.)), 103.4 pmol in data set [2] (lateral ventricle (i.c.v.)) and 103.4 (96.02 to 111.3) pmol in data set [2] (setting [5]). Also, the “analgesic effect relative to BN-9, first phase pain” value in data set [2] (setting [6]) was found to be 6.3 times. Also, in data set [2] (setting [6]), the “analgesic effect relative to BN-9, second phase pain” value is recorded as 11.0 times. In addition, the “dose producing a significant effect of lowering body temperature” value in data set [3] was found to be 500 pmol. In data set [4] (mechanical pain, lateral ventricle 6 days or subcutaneous 7 days), the “analgesic tolerance on continuous injection” value is listed as “not significantly different from that of the first day”. Moreover, the “cross-tolerance between compound 9 and morphine” value in data set [4] (morphine-tolerant mice given compound 9 on day 7 (lateral ventricle) or day 8 (subcutaneous)) is reported as “no cross-tolerance”.

The record behind these values is patent US11167006B2 (Shanghai Tianci Life Science Development Co., Ltd., priority 2016, dated 2021).
